Data as given in patent US12202821B2, “Herbicidal compounds” (SYNGENTA CROP PROTECTION AG, priority 2019, dated 2025).

Tests used:
Assay type in all cases: in vivo
[1] = test system: IPOHE; assay: Post-emergence biological efficacy; conditions: evaluated after 13 days; for pest or weed control at 250 g/ha: Ipomoea hederacea, 312 h, read-out: damage to plant (100=total damage to plant; 0=no damage to plant), IPOHE
Protocol: (§1) Post-Emergence Biological Efficacy
(§2) Seeds of weeds and/or crops were sown in standard soil in pots. After cultivation for 8 days under controlled conditions in a glasshouse (at 24/16° C., day/night; 14 hours light; 65% humidity), the plants were sprayed with an aqueous spray solution derived from the formulation of the technical active ingredient in acetone/water (50:50) solution containing 0.5% Tween 20 (polyoxyethylene sorbitan monolaurate, CAS RN 9005-64-5) to give the desired final dose of test compound.
(§3) The test plants were then grown on under controlled conditions in a glasshouse (at 24/16° C., day/night; 14 hours light; 65% humidity) and watered twice daily. After 13 days the test was evaluated (100=total damage to plant; 0=no damage to plant).

[2] = test system: AMAPA; assay: Post-emergence biological efficacy; conditions: evaluated after 13 days; for pest or weed control at 250 g/ha: 312 h, read-out: damage to plant (100=total damage to plant; 0=no damage to plant), AMAPA
Protocol: as §1, §2, §3

[3] = test system: LOLPE; assay: Post-emergence biological efficacy; conditions: evaluated after 13 days; for damage to plant (100=total damage to plant; 0=no damage to plant), LOLPE: 250 g/ha; for pest or weed control at 250 g/ha: 312 h, read-out: damage to plant (100=total damage to plant; 0=no damage to plant), LOLPE
Protocol: as §1, §2, §3

[4] = test system: DIGSA; assay: Post-emergence biological efficacy; conditions: evaluated after 13 days; for pest or weed control at 250 g/ha: Digitaria sanguinalis, 312 h, read-out: damage to plant (100=total damage to plant; 0=no damage to plant), DIGSA
Protocol: as §1, §2, §3

[5] = test system: ELEIN; assay: Post-emergence biological efficacy; conditions: evaluated after 13 days; for pest or weed control at 250 g/ha: 312 h, read-out: damage to plant (100=total damage to plant; 0=no damage to plant), ELEIN
Protocol: as §1, §2, §3

[6] = test system: ECHCG; assay: Post-emergence biological efficacy; conditions: evaluated after 13 days; for pest or weed control at 250 g/ha: Echinochloa crus-galli, 312 h, read-out: damage to plant (100=total damage to plant; 0=no damage to plant), ECHCG
Protocol: as §1, §2, §3

[7] = test system: SETFA; assay: Post-emergence biological efficacy; conditions: evaluated after 13 days; for pest or weed control at 250 g/ha: Setaria faberi, 312 h, read-out: damage to plant (100=total damage to plant; 0=no damage to plant), SETFA
Protocol: as §1, §2, §3

[8] = test system: CHEAL; assay: Post-emergence biological efficacy; conditions: evaluated after 13 days; for pest or weed control at 250 g/ha: Chenopodium album, 312 h, read-out: damage to plant (100=total damage to plant; 0=no damage to plant), CHEAL
Protocol: as §1, §2, §3

[9] = test system: EPHHL; assay: Post-emergence biological efficacy; conditions: evaluated after 13 days; for pest or weed control at 250 g/ha: 312 h, read-out: damage to plant (100=total damage to plant; 0=no damage to plant), EPHHL
Protocol: as §1, §2, §3

[10] = test system: IPOHE; assay: Pre-emergence biological efficacy; conditions: evaluated after 13 days; for pest or weed control at 250 g/ha: Ipomoea hederacea, 312 h, read-out: damage to plant (100=total damage to plant; 0=no damage to plant), IPOHE
Protocol: (§4) Pre-Emergence Biological Efficacy
as §2, with “one day” for “8 days”
(§5) The test plants were then grown under controlled conditions in the glasshouse (at 24/16° C., day/night; 14 hours light; 65% humidity) and watered twice daily. After 13 days the test was evaluated (100=total damage to plant; 0=no damage to plant).

[11] = test system: AMAPA; assay: Pre-emergence biological efficacy; conditions: evaluated after 13 days; for pest or weed control at 250 g/ha: 312 h, read-out: damage to plant (100=total damage to plant; 0=no damage to plant), AMAPA
Protocol: as §4
as §2, with “one day” for “8 days”
as §5

[12] = test system: LOLPE; assay: Pre-emergence biological efficacy; conditions: evaluated after 13 days; for pest or weed control at 250 g/ha: 312 h, read-out: damage to plant (100=total damage to plant; 0=no damage to plant), LOLPE
Protocol: as §4
as §2, with “one day” for “8 days”
as §5

[13] = test system: ECHCG; assay: Pre-emergence biological efficacy; conditions: evaluated after 13 days; for pest or weed control at 250 g/ha: Echinochloa crus-galli, 312 h, read-out: damage to plant (100=total damage to plant; 0=no damage to plant), ECHCG
Protocol: as §4
as §2, with “one day” for “8 days”
as §5

[14] = test system: SETFA; assay: Pre-emergence biological efficacy; conditions: evaluated after 13 days; for pest or weed control at 250 g/ha: Setaria faberi, 312 h, read-out: damage to plant (100=total damage to plant; 0=no damage to plant), SETFA
Protocol: as §4
as §2, with “one day” for “8 days”
as §5

[15] = test system: EPHHL; assay: Pre-emergence biological efficacy; conditions: evaluated after 13 days; for pest or weed control at 250 g/ha: 312 h, read-out: damage to plant (100=total damage to plant; 0=no damage to plant), EPHHL
Protocol: as §4
as §2, with “one day” for “8 days”
as §5

| SMILES | pest or weed control at 250 g/ha [1] [%] | pest or weed control at 250 g/ha [2] [%] | pest or weed control at 250 g/ha [4] [%] | pest or weed control at 250 g/ha [5] [%] | pest or weed control at 250 g/ha [6] [%] | pest or weed control at 250 g/ha [7] [%] | pest or weed control at 250 g/ha [8] [%] | pest or weed control at 250 g/ha [9] [%] | pest or weed control at 250 g/ha [10] [%] | pest or weed control at 250 g/ha [11] [%] | pest or weed control at 250 g/ha [12] [%] | pest or weed control at 250 g/ha [13] [%] | pest or weed control at 250 g/ha [14] [%] | pest or weed control at 250 g/ha [15] [%] | pest or weed control at 250 g/ha [3] [%] | also measured |
| --- | --- | --- | --- | --- | --- | --- | --- | --- | --- | --- | --- | --- | --- | --- | --- | --- |
| CCOC(=O)C1(C)CC(c2cc(-n3c(=O)n(C)c(=S)n(C)c3=O)c(F)cc2Cl)=NO1 (single isomer, unassigned) [Compound 47 (enantiomer A)] |  |  |  |  |  |  |  |  |  |  |  |  |  |  |  | damage to plant (100=total damage to plant; 0=no damage to plant), IPOHE ([1]; 250 g/ha): 100; damage to plant (100=total damage to plant; 0=no damage to plant), AMAPA ([2]; 250 g/ha): 100; damage to plant (100=total damage to plant; 0=no damage to plant), LOLPE [3]: 70; damage to plant (100=total damage to plant; 0=no damage to plant), DIGSA ([4]; 250 g/ha): 100; damage to plant (100=total damage to plant; 0=no damage to plant), ELEIN ([5]; 250 g/ha): 90; damage to plant (100=total damage to plant; 0=no damage to plant), ECHCG ([6]; 250 g/ha): 100; damage to plant (100=total damage to plant; 0=no damage to plant), SETFA ([7]; 250 g/ha): 100; damage to plant (100=total damage to plant; 0=no damage to plant), CHEAL ([8]; 250 g/ha): 100; damage to plant (100=total damage to plant; 0=no damage to plant), EPHHL ([9]; 250 g/ha): 90; damage to plant (100=total damage to plant; 0=no damage to plant), IPOHE ([10]; 250 g/ha): 90; damage to plant (100=total damage to plant; 0=no damage to plant), AMAPA ([11]; 250 g/ha): 100; damage to plant (100=total damage to plant; 0=no damage to plant), LOLPE ([12]; 250 g/ha): 50; damage to plant (100=total damage to plant; 0=no damage to plant), ECHCG ([13]; 250 g/ha): 60; damage to plant (100=total damage to plant; 0=no damage to plant), SETFA ([14]; 250 g/ha): 100; damage to plant (100=total damage to plant; 0=no damage to plant), EPHHL ([15]; 250 g/ha): 100 |
| CCOC(=O)C1(C)CC(c2cc(-n3c(=O)n(C)c(=S)n(C)c3=O)c(F)cc2Cl)=NO1 (single isomer, unassigned) [Compound 47 (enantiomer B)] | 100 | 100 | 100 | 100 | 100 | 100 | 100 | 100 | 80 | 100 | 40 | 50 | 100 | 100 |  | damage to plant (100=total damage to plant; 0=no damage to plant), LOLPE [3]: 100 |
| CCOC(=O)C1(C)CC(c2cc(-n3c(=O)n(C)c(=S)n(C)c3=O)ccc2Cl)=NO1 (stereo not shown) [Compound 36, Ethyl 3-[2-chloro-5-(3,5-dimethyl-2,6-dioxo-4-thioxo-1,3,5-triazinan-1-yl)phenyl]-5-methyl-4H-isoxazole-5-carboxylate] | 70 | 100 | 100 | 50 | 100 | 100 | 90 | 90 | 40 | 70 | 10 | 90 | 90 | 70 | 50 |  |
| Cn1c(=S)n(C)c(=O)n(-c2cc(C3=NOC(C)(C(=O)O)C3)c(Cl)cc2F)c1=O (stereo not shown) [Compound 45, 3-[2-chloro-5-(3,5-dimethyl-2,6-dioxo-4-thioxo-1,3,5-triazinan-1-yl)-4-fluoro-phenyl]-5-methyl-4H-isoxazole-5-carboxylic acid] | 100 | 100 | 100 | 100 | 100 | 100 | 100 | 100 | 100 | 100 | 100 | 100 | 100 | 100 | 100 |  |
| CCOC(=O)C1(C)CC(c2cc(-n3c(=O)n(C)c(=S)n(C)c3=O)c(F)cc2Cl)=NO1 (stereo not shown) [Compound 47, ethyl 3-[2-chloro-5-(3,5-dimethyl-2,6-dioxo-4-thioxo-1,3,5-triazinan-1-yl)-4-fluoro-phenyl]-5-methyl-4H-isoxazole-5-carboxylate] | 100 | 100 | 100 | 100 | 100 | 100 | 100 | 100 | 100 | 100 | 70 | 100 | 100 | 100 | 100 |  |
| Cn1c(=S)n(C)c(=O)n(-c2cc(C3=NOC(C)(CO)C3)c(Cl)cc2F)c1=O (stereo not shown) [Compound 49, 3-[4-chloro-2-fluoro-5-[5-(hydroxymethyl)-5-methyl-4H-isoxazol-3-yl]phenyl]-1,5-dimethyl-6-thioxo-1,3,5-triazinane-2,4-dione] | 100 | 100 | 90 | 90 | 70 | 100 | 100 | 100 | 90 | 100 | 90 | 90 | 100 | 100 | 60 |  |
| Cn1c(=S)n(C)c(=O)n(-c2cc(C3=NOC(C)(COS(C)(=O)=O)C3)c(Cl)cc2F)c1=O (stereo not shown) [Compound 53, [3-[2-chloro-5-(3,5-dimethyl-2,6-dioxo-4-thioxo-1,3,5-triazinan-1-yl)-4-fluoro-phenyl]-5-methyl-4H-isoxazol-5-yl]methyl methanesulfonate] | 80 | 90 | 70 | 80 | 30 | 40 | 90 | 90 | 0 | 100 | 70 | 60 | 100 |  | 40 |  |
| COC(=O)C1(C(F)(F)F)CC(c2cc(-n3c(=O)n(C)c(=S)n(C)c3=O)c(F)cc2Cl)=NO1 (stereo not shown) [Compound 262, Methyl 3-[2-chloro-5-(3,5-dimethyl-2,6-dioxo-4-thioxo-1,3,5-triazinan-1-yl)-4-fluoro-phenyl]-5-trifluoromethyl-4H-isoxazole-5-carboxylate] | 50 | 40 | 50 | 40 | 20 | 30 | 30 | 60 | 0 |  | 30 | 30 | 50 | 0 | 0 |  |
